Data as given in patent US20250154109A1, “SODIUM CHANNEL BLOCKING COMPOUNDS, DERIVATIVES THEREOF, AND METHODS OF THEIR USE” (LATIGO BIOTHERAPEUTICS, INC, priority 2022, published 2025).
pIC50: −log10 of the molar value. Read-outs that look alike come from different tables or passages of the source.

Columns and labels:
rat plasma protein = assay: Rat plasma protein binding by equilibrium dialysis; assay type: in vitro ADME
Excerpt: (§1) Table 3 presents the human and rat plasma protein binding data (% unbound) for the compounds of Table 2.
(§2) Comparator compounds A, B, C have been previously reported as inhibitors of Na, 1.8 in WO2020/092667. Comparator D, not previously reported, is offered as an additional sulfonamido example.

human Nav1.8 = human Nav1.8 (Homo sapiens, UniProt Q9Y5Y9); assay: SyncroPatch384PE assay (automated patch clamp); assay type: cell-based; conditions: human Nav1.8/b3 CHO cells
human plasma protein = assay: Human plasma protein binding by equilibrium dialysis; assay type: in vitro ADME
Excerpt: as §1, §2

[1] = ratio of unbound % sulfoximine / comparator sulfonamide

Sequence of human Nav1.8 (Q9Y5Y9 whole entry): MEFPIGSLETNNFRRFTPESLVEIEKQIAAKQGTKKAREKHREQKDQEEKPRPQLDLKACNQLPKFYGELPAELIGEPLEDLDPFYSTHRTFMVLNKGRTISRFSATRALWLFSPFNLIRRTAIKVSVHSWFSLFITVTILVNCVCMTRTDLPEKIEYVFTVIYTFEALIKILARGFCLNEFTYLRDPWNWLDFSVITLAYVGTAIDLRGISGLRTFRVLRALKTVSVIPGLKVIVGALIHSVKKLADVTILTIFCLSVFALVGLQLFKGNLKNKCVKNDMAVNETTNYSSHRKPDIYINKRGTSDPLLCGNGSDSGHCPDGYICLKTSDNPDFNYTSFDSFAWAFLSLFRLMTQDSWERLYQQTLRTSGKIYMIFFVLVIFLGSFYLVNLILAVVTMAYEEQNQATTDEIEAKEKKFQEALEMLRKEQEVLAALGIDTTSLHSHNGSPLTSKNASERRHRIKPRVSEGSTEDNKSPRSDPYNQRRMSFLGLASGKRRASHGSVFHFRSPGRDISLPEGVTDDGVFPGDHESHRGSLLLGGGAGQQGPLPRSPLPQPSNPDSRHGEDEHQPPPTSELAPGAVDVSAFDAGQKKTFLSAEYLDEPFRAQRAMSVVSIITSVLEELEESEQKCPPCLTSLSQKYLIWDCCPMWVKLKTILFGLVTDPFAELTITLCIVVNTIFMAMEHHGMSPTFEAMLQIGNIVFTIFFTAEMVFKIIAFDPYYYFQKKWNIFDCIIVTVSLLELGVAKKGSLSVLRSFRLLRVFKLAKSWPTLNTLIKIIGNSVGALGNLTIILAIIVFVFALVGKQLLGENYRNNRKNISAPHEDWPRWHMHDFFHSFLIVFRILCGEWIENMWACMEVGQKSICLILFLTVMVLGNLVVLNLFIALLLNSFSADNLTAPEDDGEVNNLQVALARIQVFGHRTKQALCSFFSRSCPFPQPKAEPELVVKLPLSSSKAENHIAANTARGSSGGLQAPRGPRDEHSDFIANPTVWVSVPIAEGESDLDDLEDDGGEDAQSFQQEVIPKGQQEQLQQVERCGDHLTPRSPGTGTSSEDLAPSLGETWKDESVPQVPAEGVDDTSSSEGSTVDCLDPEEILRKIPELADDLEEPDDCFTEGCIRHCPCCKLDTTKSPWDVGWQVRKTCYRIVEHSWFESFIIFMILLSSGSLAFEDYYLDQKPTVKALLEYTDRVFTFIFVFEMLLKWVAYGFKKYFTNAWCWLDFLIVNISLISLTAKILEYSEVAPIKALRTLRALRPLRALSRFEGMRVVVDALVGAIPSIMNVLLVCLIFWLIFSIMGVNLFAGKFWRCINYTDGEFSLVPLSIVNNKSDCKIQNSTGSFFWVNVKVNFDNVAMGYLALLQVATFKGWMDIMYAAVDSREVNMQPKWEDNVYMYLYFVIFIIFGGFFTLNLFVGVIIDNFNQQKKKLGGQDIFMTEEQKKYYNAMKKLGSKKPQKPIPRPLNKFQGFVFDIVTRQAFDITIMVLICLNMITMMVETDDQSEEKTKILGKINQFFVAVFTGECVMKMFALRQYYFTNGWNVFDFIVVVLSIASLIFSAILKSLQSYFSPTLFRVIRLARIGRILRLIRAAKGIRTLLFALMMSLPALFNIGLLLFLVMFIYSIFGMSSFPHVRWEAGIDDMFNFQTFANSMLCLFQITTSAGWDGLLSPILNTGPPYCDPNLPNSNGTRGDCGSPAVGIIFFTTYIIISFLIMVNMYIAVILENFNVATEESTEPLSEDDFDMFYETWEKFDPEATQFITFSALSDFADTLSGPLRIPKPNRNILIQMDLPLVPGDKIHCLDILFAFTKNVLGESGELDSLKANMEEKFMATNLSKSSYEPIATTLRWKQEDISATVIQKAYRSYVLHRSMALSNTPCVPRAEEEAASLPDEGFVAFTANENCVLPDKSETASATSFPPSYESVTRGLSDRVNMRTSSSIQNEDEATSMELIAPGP

**Q.** `Cc1nc(N2CCCC(F)(F)CC2)c(C(=O)Nc2cccc([S@](C)(=N)=O)c2)cc1C(F)(F)F` [Example 4, (R)-2-(4,4-difluoroazepan-1-yl)-6-methyl-N-(3-(S-methylsulfonimidoyl)phenyl)-5-(trifluoromethyl)nicotinamide] was tested. Which “Rat Plasma, Unbound %” value (rat plasma protein; equilibrium dialysis) did it give?
**A.** The value was 1.9%.

**Q.** And the “Fold increase vs Comparator (rat plasma unbound)” value (rat plasma protein; [1])?
**A.** Its value is 6.1×.

**Q.** And the pIC50 (human Nav1.8; inactivated state block (P2 measurement), read-out: P2 IC50)?
**A.** Its pIC50 is at least 8.30.

**Q.** What about the pIC50 (human Nav1.8; resting state block (P1 measurement), read-out: P1 IC50) of the same compound?
**A.** The pIC50 was at least 8.30.

**Q.** And the “Human Plasma, Unbound %” value (human plasma protein; equilibrium dialysis)?
**A.** The value was 0.9%.

**Q.** And the “Fold increase vs Comparatror (human plasma unbound)” value (human plasma protein; [1])?
**A.** Its value is 2.9×.
